Values of other authors, collected in patent publication US20060193787A1, “Nanoparticle-based drug delivery system” (priority 2005, published 2006).

Details: oral delivery

Q: With `CC(=O)O[C@H]1C(=O)[C@@]2(C)[C@H]([C@H](OC(=O)c3ccccc3)[C@]3(O)C[C@H](OC(=O)[C@H](O)[C@@H](NC(=O)c4ccccc4)c4ccccc4)C(C)=C1C3(C)C)[C@]1(OC(C)=O)CO[C@@H]1C[C@@H]2O` [paclitaxel] as the compound, how does the Bioavailability read?
A: The Bioavailability was “less than 1%”.
